Assays:
Botrytis cinerea = assay: Fungal growth inhibition assay, 96-well microtitre plate, absorbance at 595 nm; assay type: cell-based; conditions: 20 μg/mL purified protein; FIG. 11
Text: (§1) The 96-well microtitre plate assay of Broekaert et al. (EMS Microbiology Letters 69:55-60, 1990) was used to test the effect of the purified NaPdf1 protein on the growth of Botrytis cinerea (isolated from rosemary, Brunswick, Victoria), Fusarium oxysporum (f. sp. dianthi, Race 2; isolated from carnation by Florigene Limited, Collingwood, Victoria) and Fusarium oxysporum (f. sp. vasinfectum, isolate VCG 01111 from cotton; provided by the Department of Primary Industries, Queensland). Fungal spores were isolated from sporulating cultures growing on half strength potato dextrose agar (PDA, Difco) or gamma-irradiated carnation leaves in water agar by the addition of sterile water and the use of a spreader. The suspension was filtered through two layers of autoclaved muslin and the spore concentration in the filtrate determined using a haemocytometer. The spores were used directly or after storage in sterile 20% v/v glycerol solution at −20° C.
(§2) Antifungal assays were performed in 96-well flat-bottomed microtitre plates (Greiner) under aseptic conditions. The spore concentration was adjusted to about 2×10^4 spores/mL in PDB and 80 μL of this suspension was added to each well to which 20 μL of filter sterilised (0.22 μm syringe filter, Millipore) test protein (10, 50 or 100 μg/mL) or water was added. The purity and concentration of each protein was confirmed before use by RP-HPLC analysis. Sterile water and ovalbumin (Sigma) were added to other wells as negative controls, and a mixture of the antifungal proteins α- and β-purothionin (Sigma) was used as a positive control. The plates were shaken on an orbital shaker for a few seconds to mix the spores and the test proteins. The plates were allowed to stand for 30 min to allow the spores to sediment before the optical density of the plates were determined using a Spectra Max Pro 250 microplate reader (Molecular Devices) at 595 nm absorbance. […] An increase in absorbance relative to the initial reading was correlated with the growth of fungal hyphae and this was plotted against time. […]

[1] = system: Fusarium oxysporum (f. sp. dianthi, Race 2); assay: as above; assay type: cell-based; conditions: 20 μg/mL purified protein; FIG. 12A
Text: as §1, §2

[2] = system: Fusarium oxysporum (f. sp. vasinfectum, isolate VCG 01111); assay: as above; assay type: cell-based; conditions: 20 μg/mL purified protein; FIGS. 12B and 12C
Text: as §1, §2

H. armigera larvae = assay: Insect feeding trial with artificial cotton leaf diet; assay type: in vivo; conditions: 0.3% (w/v) test protein in artificial diet; casein control; FIG. 16
Text: Table 2 Artificial diet ingredients used in the feeding trial of H. armigera [table] Helicoverpa punctigera larvae came from a colony collected in Victoria, Australia and maintained in culture at La Trobe University, Melbourne and H. armigera were obtained from a colonies maintained at La Trobe University, Melbourne or the Australian Cotton Research Institute, at the Entomology Department of the Commonwealth Scientific and Industrial Research Organisation in Narrabri, NSW. To confirm that the insecticidal activity was due to the defensin and not to upregulation of other endogenous defense molecules, a feeding trial using artificial cotton leaf diet containing purified defensin from floral buds was performed. The 6 kDa cysteine rich proteinase inhibitors (NaPI) from N. alata (Atkinson et al., Plant Cell 5: 203-213, 1993) were used as positive control and casein was used as a negative control. Feeding trials were conducted as described in Heath et al. (J. Insect Physiology 43: 833-842, 1997 except that the artificial diet was based on cotton leaves (Table 2). Thirty milligram of defensin was purified from floral buds of N. alata and used in artificial diets at two concentrations. H. armigera larvae fed on defensin at 0.3% (w/v) were 40% smaller than controls (FIG. 16) while larvae fed on NaPI at the same concentration were about 60% smaller than controls.

**Q.** How did the “growth inhibition of B. cinerea” value (Botrytis cinerea) turn out when “NaPdf1: Mature floral defensin (47 amino acids, ~5.3 kDa) from Nicotiana alata, purified from floral buds (RECKTESNTFPGICITKPPCRKACISEKFTDGHCSKILRRCLCTKPC; listed as Nicotiana alata)” was run?
**A.** effectiveness

**Q.** What about the “growth inhibition of F. oxysporum f. sp. dianthi” value [1] of the same substance?
**A.** effectiveness

**Q.** What about the “growth inhibition of F. oxysporum f. sp. vasinfectum” value [2] of the same substance?
**A.** effectiveness

**Q.** And the “larvae smaller than controls (mean weight)” value (H. armigera larvae)?
**A.** 40%
